In ChEMBL document CHEMBL2413047, “Identification of GNE-293, a potent and selective PI3Kδ inhibitor: navigating in vitro genotoxicity while improving potency and selectivity” (Bioorg Med Chem Lett, 2013):
Converted amounts (≈) assume the structure as drawn.

Experiments:
[1] = biological target: Phosphatidylinositol 4,5-bisphosphate 3-kinase catalytic subunit alpha isoform (Homo sapiens, UniProt P42336); assay: Inhibition of PI3Kalpha (unknown origin) assessed as formation of PIP3 by competitive fluorescence polarization assay; settings: read-out: Ki(app)
[2] = biological target: T1, Phosphatidylinositol 4,5-bisphosphate 3-kinase catalytic subunit delta isoform (Homo sapiens, UniProt O00329); assay: Inhibition of PI3Kdelta (unknown origin) assessed as formation of PIP3 by competitive fluorescence polarization assay; settings: read-out: Ki(app)
T1 sequence (O00329 whole entry): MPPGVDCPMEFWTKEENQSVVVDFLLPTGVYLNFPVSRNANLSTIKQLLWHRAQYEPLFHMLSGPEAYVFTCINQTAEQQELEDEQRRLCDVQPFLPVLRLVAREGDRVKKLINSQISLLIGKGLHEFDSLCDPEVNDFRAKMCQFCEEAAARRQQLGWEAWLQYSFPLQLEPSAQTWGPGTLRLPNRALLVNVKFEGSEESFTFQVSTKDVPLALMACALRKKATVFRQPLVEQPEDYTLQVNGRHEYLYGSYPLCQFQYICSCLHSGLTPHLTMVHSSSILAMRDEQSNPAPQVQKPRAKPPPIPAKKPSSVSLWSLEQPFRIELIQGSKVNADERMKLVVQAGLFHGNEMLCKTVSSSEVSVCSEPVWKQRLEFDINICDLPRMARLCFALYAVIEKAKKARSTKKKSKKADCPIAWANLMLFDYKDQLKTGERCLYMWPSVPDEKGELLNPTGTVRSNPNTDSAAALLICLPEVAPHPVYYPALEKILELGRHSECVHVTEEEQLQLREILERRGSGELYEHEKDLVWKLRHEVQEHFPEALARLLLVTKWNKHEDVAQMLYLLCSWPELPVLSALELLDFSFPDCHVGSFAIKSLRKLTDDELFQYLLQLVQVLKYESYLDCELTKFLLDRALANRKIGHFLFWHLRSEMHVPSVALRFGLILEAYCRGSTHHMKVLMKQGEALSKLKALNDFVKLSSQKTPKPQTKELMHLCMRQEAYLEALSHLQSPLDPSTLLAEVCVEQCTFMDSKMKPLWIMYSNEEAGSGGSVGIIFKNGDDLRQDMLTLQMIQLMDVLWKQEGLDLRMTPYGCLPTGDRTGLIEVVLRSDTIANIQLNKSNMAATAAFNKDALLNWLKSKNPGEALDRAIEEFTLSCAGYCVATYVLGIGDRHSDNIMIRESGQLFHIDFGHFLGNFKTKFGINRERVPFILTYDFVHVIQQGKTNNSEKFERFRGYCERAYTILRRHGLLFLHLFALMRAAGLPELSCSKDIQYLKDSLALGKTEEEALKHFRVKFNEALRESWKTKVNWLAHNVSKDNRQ

[3] = biological target: T1, Phosphatidylinositol 4,5-bisphosphate 3-kinase catalytic subunit delta isoform; assay: Inhibition of PI3Kdelta in human whole blood assessed as expression of CD69 in B cell preincubated for 1 hr by flow cytometry; assay type: tissue-based
[4] = Genotoxicity in human lymphocytes assessed as chromosome aberration; assay type: toxicity, cell-based; settings: lymphocyte
CHO-K1 = assay: Genotoxicity in CHOK1 cells by micronucleus assay; assay type: toxicity, cell-based, Cricetulus griseus; settings: chinese hamster
[5] = biological target: Phosphatidylinositol 4-phosphate 3-kinase C2 domain-containing subunit beta (Homo sapiens) (UniProt O00750); assay: Inhibition of PI3KC2b (unknown origin) at 10 uM
[6] = biological target: Maternal embryonic leucine zipper kinase (Homo sapiens) (UniProt Q14680); assay: Inhibition of MELK (unknown origin) at 10 uM
[7] = test system: Serine/threonine-protein kinase B-raf (Homo sapiens), P15056 [V600E]; assay: Inhibition of B-Raf V599E mutant (unknown origin) at 10 uM
[8] = Kinetic solubility of the compound; assay type: physicochemical; settings: read-out: Kinetic_solubility
[9] = Genotoxicity in human lymphocytes assessed as chromosome aberration at […] relative to control; assay type: toxicity, cell-based; settings: lymphocyte
[10] = AUC in dog at 10 mg/kg, po; assay type: ADME, organism-based, Canis lupus familiaris; parameters: dose 10 mg/kg, route oral; settings: plasma
[11] = AUC in rat at 5 mg/kg, po; assay type: ADME, organism-based; parameters: dose 5 mg/kg, route oral; settings: plasma
[12] = AUC in dog at 2 mg/kg, po; assay type: ADME, organism-based, Canis lupus familiaris; parameters: dose 2 mg/kg, route oral; settings: plasma
[13] = Cmax in dog at 2 mg/kg, po; assay type: ADME, organism-based, Canis lupus familiaris; parameters: dose 2 mg/kg, route oral; settings: in vivo
[14] = Cmax in dog at 10 mg/kg, po; assay type: ADME, organism-based, Canis lupus familiaris; parameters: dose 10 mg/kg, route oral; settings: in vivo
[15] = Oral bioavailability in dog at 10 mg/kg; assay type: ADME, organism-based, Canis lupus familiaris; settings: in vivo
[16] = Cmax in rat at 5 mg/kg, po; assay type: ADME, organism-based; parameters: dose 5 mg/kg, route oral; settings: in vivo
[17] = Oral bioavailability in rat at 5 mg/kg; assay type: ADME, organism-based; settings: in vivo
[18] = Oral bioavailability in dog at 2 mg/kg; assay type: ADME, organism-based, Canis lupus familiaris; settings: in vivo
[19] = Half life in rat at 1 mg/kg, iv; assay type: ADME, organism-based; parameters: dose 1 mg/kg, route intravenous; settings: in vivo
[20] = Half life in dog at 1 mg/kg, iv; assay type: ADME, organism-based, Canis lupus familiaris; parameters: dose 1 mg/kg, route intravenous; settings: in vivo
[21] = Volume of distribution at steady state in dog at 1 mg/kg, iv; assay type: ADME, organism-based, Canis lupus familiaris; parameters: dose 1 mg/kg, route intravenous; settings: in vivo, read-out: Vdss
[22] = Volume of distribution at steady state in rat at 1 mg/kg, iv; assay type: ADME, organism-based; parameters: dose 1 mg/kg, route intravenous; settings: in vivo, read-out: Vdss
[23] = Clearance in rat at 1 mg/kg, iv; assay type: ADME, organism-based; parameters: dose 1 mg/kg, route intravenous; settings: in vivo
[24] = Clearance in dog at 1 mg/kg, iv; assay type: ADME, organism-based, Canis lupus familiaris; parameters: dose 1 mg/kg, route intravenous; settings: in vivo
[25] = Plasma protein binding in dog; assay type: ADME, cell-free, Canis lupus familiaris; settings: read-out: PPB (converted)
[26] = Plasma protein binding in rat; assay type: ADME, cell-free; settings: read-out: PPB (converted)
[27] = biological target: Phosphatidylinositol 4-kinase beta (Homo sapiens) (UniProt Q9UBF8); assay: Inhibition of PI4Kb (unknown origin) at 1 uM
[28] = biological target: Serine/threonine-protein kinase B-raf (Homo sapiens) (UniProt P15056); assay: Inhibition of B-Raf (unknown origin) at 1 uM
[29] = Genotoxicity in human lymphocytes assessed as mitotic index at […] (reference value: 11.1); assay type: toxicity, cell-based; settings: lymphocyte

Phosphatidylinositol 4,5-bisphosphate 3-kinase catalytic subunit alpha isoform, sequence (P42336 whole entry, canonical isoform): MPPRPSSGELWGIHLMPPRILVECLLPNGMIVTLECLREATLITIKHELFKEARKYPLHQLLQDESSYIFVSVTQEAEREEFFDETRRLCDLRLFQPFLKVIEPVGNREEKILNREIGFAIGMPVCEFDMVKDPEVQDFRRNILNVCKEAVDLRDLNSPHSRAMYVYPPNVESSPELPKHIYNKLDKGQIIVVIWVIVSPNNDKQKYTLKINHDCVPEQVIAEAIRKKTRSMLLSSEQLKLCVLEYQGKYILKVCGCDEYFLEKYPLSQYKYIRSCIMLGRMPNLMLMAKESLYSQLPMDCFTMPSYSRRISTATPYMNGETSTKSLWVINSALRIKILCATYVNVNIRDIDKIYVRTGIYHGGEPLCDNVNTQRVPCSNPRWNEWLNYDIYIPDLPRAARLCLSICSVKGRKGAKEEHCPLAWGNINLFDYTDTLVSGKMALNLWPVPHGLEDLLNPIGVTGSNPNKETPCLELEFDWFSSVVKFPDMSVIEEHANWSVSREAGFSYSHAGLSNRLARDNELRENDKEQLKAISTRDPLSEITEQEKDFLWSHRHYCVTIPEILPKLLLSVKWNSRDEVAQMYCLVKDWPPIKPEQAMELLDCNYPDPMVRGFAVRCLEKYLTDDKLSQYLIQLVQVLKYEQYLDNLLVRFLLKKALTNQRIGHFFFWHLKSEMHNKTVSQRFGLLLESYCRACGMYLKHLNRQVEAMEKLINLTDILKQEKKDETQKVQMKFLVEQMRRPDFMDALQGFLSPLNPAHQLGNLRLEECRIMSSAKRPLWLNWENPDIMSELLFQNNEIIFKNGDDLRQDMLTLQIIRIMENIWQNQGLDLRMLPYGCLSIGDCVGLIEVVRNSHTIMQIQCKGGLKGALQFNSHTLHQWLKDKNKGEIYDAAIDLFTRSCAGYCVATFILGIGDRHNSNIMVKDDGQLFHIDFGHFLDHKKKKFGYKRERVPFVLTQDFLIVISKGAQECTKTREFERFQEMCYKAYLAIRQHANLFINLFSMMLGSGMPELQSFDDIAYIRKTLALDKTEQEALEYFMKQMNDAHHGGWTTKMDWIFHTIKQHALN
Serine/threonine-protein kinase B-raf (Homo sapiens), sequence (P15056 whole entry): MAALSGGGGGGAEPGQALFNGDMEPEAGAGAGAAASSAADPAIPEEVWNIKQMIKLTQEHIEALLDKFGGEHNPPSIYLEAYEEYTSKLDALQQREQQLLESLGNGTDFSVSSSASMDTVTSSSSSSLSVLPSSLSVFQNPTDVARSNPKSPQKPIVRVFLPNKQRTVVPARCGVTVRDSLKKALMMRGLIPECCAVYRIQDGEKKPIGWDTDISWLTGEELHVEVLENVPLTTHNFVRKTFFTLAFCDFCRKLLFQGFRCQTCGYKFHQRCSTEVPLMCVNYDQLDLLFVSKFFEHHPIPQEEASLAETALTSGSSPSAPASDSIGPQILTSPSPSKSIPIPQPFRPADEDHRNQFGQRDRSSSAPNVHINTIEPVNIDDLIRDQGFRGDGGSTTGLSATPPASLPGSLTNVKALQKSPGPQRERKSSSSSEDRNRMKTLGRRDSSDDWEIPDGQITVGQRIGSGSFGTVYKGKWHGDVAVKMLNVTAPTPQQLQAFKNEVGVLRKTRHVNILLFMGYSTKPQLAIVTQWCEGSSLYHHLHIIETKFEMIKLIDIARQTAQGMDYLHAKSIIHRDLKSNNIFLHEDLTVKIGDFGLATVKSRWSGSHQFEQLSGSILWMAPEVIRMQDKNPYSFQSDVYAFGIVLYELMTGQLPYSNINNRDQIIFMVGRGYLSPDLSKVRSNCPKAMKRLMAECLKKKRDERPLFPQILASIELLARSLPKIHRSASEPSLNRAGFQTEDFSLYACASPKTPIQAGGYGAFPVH
Maternal embryonic leucine zipper kinase (Homo sapiens), sequence (Q14680 whole entry, looked up): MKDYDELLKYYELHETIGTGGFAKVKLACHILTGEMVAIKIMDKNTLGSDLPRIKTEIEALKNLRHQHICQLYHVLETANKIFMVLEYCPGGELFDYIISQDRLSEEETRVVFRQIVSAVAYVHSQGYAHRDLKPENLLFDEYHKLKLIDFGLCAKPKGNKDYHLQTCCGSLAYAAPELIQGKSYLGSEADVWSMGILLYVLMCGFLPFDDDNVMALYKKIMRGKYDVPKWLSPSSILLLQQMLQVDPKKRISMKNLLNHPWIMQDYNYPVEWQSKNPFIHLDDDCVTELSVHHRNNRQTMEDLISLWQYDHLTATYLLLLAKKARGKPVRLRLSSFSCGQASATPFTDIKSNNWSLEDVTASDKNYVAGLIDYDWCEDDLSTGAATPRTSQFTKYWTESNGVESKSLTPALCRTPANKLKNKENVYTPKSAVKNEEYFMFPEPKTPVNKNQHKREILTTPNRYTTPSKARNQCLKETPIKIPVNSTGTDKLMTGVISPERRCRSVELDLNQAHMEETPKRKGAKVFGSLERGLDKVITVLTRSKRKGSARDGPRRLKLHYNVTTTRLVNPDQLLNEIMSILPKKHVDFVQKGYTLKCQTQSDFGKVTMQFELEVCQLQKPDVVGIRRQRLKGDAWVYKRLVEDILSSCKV
Phosphatidylinositol 4-kinase beta (Homo sapiens), sequence (Q9UBF8 2-816 limits assumed): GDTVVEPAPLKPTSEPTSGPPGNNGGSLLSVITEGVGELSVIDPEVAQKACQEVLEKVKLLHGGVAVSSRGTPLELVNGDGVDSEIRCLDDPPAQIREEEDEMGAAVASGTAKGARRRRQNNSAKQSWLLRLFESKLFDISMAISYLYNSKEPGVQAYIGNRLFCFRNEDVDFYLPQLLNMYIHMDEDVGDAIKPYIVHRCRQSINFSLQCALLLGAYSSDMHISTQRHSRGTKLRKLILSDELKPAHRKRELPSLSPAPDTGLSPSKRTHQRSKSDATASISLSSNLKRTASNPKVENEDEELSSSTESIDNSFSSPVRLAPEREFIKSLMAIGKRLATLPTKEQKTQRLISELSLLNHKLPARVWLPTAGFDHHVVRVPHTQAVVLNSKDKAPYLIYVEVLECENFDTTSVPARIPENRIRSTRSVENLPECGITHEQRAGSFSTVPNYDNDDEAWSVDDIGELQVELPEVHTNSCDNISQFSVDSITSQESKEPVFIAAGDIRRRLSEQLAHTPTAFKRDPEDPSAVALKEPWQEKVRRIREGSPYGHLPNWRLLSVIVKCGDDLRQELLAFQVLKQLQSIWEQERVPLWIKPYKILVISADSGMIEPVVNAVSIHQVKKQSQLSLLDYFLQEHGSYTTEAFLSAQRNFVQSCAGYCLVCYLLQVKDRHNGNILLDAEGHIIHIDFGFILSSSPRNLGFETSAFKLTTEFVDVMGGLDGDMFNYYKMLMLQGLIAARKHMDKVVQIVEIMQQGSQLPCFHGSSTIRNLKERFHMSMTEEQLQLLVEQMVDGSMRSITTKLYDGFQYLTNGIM
Serine/threonine-protein kinase B-raf (Homo sapiens), P15056 [V600E], sequence (P15056 whole entry V600E): as the sequence (P15056 whole entry) above, with V600E counted along it
Phosphatidylinositol 4-phosphate 3-kinase C2 domain-containing subunit beta (Homo sapiens), sequence (O00750 whole entry, the tested form may be a part): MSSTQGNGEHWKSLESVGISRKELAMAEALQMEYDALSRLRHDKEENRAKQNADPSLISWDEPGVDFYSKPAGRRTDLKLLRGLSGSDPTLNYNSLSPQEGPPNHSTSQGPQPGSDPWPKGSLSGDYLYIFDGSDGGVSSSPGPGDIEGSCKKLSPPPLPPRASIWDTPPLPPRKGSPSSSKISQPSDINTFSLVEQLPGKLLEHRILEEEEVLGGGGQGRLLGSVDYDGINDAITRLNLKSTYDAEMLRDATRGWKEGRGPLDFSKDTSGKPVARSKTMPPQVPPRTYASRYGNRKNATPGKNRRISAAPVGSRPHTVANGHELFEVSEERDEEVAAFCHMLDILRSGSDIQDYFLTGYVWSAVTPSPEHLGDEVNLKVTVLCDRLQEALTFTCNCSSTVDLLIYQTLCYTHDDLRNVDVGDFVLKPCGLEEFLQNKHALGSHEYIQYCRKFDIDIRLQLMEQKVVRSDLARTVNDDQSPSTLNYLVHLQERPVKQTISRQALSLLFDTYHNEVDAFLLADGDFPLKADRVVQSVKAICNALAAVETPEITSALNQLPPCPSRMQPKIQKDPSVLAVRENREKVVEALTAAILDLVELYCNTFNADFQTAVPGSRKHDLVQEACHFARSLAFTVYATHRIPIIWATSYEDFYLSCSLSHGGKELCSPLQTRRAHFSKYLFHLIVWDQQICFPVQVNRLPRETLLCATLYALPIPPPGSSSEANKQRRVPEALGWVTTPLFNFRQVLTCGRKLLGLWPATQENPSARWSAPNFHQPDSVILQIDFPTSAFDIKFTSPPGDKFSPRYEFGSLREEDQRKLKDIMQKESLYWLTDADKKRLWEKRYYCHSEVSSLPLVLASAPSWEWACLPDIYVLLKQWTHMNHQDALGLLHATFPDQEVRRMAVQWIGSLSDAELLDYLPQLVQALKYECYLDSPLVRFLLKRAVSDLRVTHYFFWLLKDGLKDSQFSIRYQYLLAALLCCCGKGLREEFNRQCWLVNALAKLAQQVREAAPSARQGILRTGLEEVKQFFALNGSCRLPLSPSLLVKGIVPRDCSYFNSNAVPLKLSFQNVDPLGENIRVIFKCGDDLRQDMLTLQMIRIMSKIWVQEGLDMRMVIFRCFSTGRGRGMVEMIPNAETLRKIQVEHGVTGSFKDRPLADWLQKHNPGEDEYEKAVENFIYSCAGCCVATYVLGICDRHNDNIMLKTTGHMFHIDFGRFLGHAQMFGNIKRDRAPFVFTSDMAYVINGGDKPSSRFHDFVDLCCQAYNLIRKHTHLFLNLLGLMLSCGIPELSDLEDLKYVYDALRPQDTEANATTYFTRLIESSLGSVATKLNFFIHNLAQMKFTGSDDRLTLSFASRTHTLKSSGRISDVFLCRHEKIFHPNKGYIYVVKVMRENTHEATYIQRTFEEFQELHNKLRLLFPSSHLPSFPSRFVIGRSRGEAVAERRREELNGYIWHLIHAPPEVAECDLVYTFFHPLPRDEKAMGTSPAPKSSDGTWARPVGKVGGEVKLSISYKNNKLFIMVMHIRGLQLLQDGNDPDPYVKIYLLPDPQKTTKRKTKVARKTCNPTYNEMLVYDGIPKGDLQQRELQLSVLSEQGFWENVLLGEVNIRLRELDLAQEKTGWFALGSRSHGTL

**Q.** Which Ki [1] does the source give for CCc1nc2ccccc2n1-c1nc(N2CCOCC2)c2nc(C(=O)N3CCN(C(C)(C)C(N)=O)CC3)n(C)c2n1 here?
**A.** 236 nM

**Q.** And the Ki [2]?
**A.** 0.8 nM

**Q.** What does the source list for CCc1nc2ccccc2n1-c1nc(N2CCOCC2)c2nc(C(=O)N3CCC(C(C)(C)O)CC3)n(C)c2n1?
**A.** IC50 [3]: 52.8 nM; Ki [2]: 3.1 nM

**Q.** Which Activity [4] does the source give for Cc1nc2ccccc2n1-c1nc(N2CCOCC2)c2nc(CN3CCC(C(C)(C)O)CC3)n(C)c2n1 here?
**A.** Toxic

**Q.** And the Activity (CHO-K1)?
**A.** Toxic

**Q.** Which IC50 [3] does the source give for CCc1nc2ccccc2n1-c1nc(N2CCOCC2)c2nc(NC3CN(C4CCS(=O)(=O)CC4)C3)n(C)c2n1 here?
**A.** 80.2 nM

**Q.** And the Ki [2]?
**A.** 0.9 nM

**Q.** Which results are given for CC(C)(O)C1CCN(Cc2cc3nc(-c4cccc5[nH]ncc45)nc(N4CCOCC4)c3s2)CC1?
**A.** Activity [4]: Non-toxic; Ki [2]: 1.1 nM; Activity (CHO-K1): Non-toxic

**Q.** Which inhibition [5] does the source give for CC(C)c1nc2ccccc2n1-c1nc(N2CCOCC2)c2nc(CN3CCC(C(C)(C)O)CC3)n(C)c2n1 here?
**A.** 72%

**Q.** And the inhibition [6]?
**A.** 63%

**Q.** And the inhibition [7]?
**A.** 53%

**Q.** And the solubility kinetic [8]?
**A.** 32 µM (≈ 17 µg/mL)

**Q.** What about the Activity [4] of the same compound?
**A.** Toxic

**Q.** What about the Activity (CHO-K1) of the same compound?
**A.** Non-toxic

**Q.** Which results are given for CCc1nc2ccccc2n1-c1nc(N2CCOCC2)c2nc(N(C)C3CN(C4CCS(=O)(=O)CC4)C3)n(C)c2n1?
**A.** IC50 [3]: 1.79 nM; Ki [2]: 0.59 nM

**Q.** Which Ki [1] does the source give for CCc1nc2ccccc2n1-c1nc(N2CCOCC2)c2sc(C(=O)N3CCN(C(C)(C)C(N)=O)CC3)c(C)c2n1 here?
**A.** 157 nM

**Q.** What about the Ki [2] of the same compound?
**A.** 12.7 nM

**Q.** What does the source list for CC(C)c1nc2ccccc2n1-c1nc(N2CCOCC2)c2nc(OC3CN(C4CCS(=O)(=O)CC4)C3)n(C)c2n1?
**A.** Activity [9]: 2%; AUC [10]: 128 µM·h; AUC [11]: 7.23 µM·h; AUC [12]: 21.1 µM·h; Cmax [13]: 1740 nM; Cmax [14]: 8.81 µM; bioavailability [15]: 100%; Cmax [16]: 1180 nM; bioavailability [17]: 96.2%; bioavailability [18]: 82.6%; half-life [19]: 155 min; half-life [20]: 696 min; Vd [21]: 2.2 L/kg; Vd [22]: 3.6 L/kg; clearance [23]: 19.4 mL/min/kg; clearance [24]: 2.3 mL/min/kg; fraction unbound [25]: 0.2; fraction unbound [26]: 0.183; inhibition [27]: 71%; inhibition [28]: 61%; IC50 [3]: 4.38 nM; Ki [2]: 0.47 nM; Activity [29]: 6.8%

**Q.** With CCc1nc2ccccc2n1-c1nc(N2CCOCC2)c2nc(CC3CN(C4CCS(=O)(=O)CC4)C3)n(C)c2n1 as the compound, how does the clearance [23] read?
**A.** 63 mL/min/kg

**Q.** And the IC50 [3]?
**A.** 4.02 nM

**Q.** And the Ki [2]?
**A.** 0.23 nM

**Q.** For CNc1nc2ccccc2n1-c1nc(N2CCOCC2)c2nc(CN3CCC(C(C)(C)O)CC3)n(C)c2n1, which Activity (CHO-K1) is on record?
**A.** Toxic

**Q.** Which Activity [4] does the source give for CCc1nc2ccccc2n1-c1nc(N2CCOCC2)c2nc(CN3CCC(C(C)(C)O)CC3)n(C)c2n1 here?
**A.** Toxic

**Q.** And the Activity (CHO-K1)?
**A.** Toxic

**Q.** Which Activity [4] does the source give for Cn1c(CN2CCC(C(C)(C)O)CC2)nc2c(N3CCOCC3)nc(-n3c(C4CC4)nc4ccccc43)nc21 here?
**A.** Toxic

**Q.** And the Activity (CHO-K1)?
**A.** Non-toxic

**Q.** Which results are given for CCc1nc2ccccc2n1-c1nc(N2CCOCC2)c2sc(CN3CCC(C(C)(C)O)CC3)cc2n1?
**A.** Activity [4]: Non-toxic; Activity (CHO-K1): Non-toxic

**Q.** With Cn1c(CN2CCC(C(C)(C)O)CC2)nc2c(N3CCOCC3)nc(-c3cccc4[nH]ncc34)nc21 as the compound, how does the Ki [2] read?
**A.** 2.3 nM

**Q.** What does the source list for CCc1nc2ccccc2n1-c1nc(N2CCOCC2)c2nc(CC3CN(C(=O)C(C)C)C3)n(C)c2n1?
**A.** IC50 [3]: 9.96 nM; Ki [2]: 0.36 nM

**Q.** For CCc1nc2ccccc2n1-c1nc(N2CCOCC2)c2nc(NC3CN(C(=O)C(C)C)C3)n(C)c2n1, which Ki [2] is on record?
**A.** 0.88 nM
